In patent US7998681B2, “Diagnosis and therapy of antibody-mediated inflammatory auto-immune disorders” (Los Angeles Biomedical Research Institute at Harbor-UCLA …, priority 2000, dated 2011):

Columns and labels:
Assay type in all cases: cell-based, human
[1] = system: Thy-1^+ and Thy-1^− fibroblasts; assay: IL-8 production in Thy-1+ and Thy-1- orbital fibroblast subsets; details: IL-1β treated
Source text: FIGS. 11A-11C show differential production in TAO-derived Thy-1^+ and Thy-1^− subsets of PGE2 (11A) and IL-8 in response to IL-1β stimulation (11B), and IL-16 in response to stimulation with Graves' IgG (11C).
With regard to cytokine expression, both subsets fail to generate detectable IL-6 under basal culture conditions but synthesize high levels of the cytokine when treated with IL-1β. The magnitude of these responses is similar in the two fibroblast populations. Similarly, both subsets express low basal levels of IL-8 (FIG. 11B). When treated with IL-1β, Thy-1^− fibroblasts synthesize and release extremely high levels of IL-8 and this induction is substantially (5.5-fold) greater than that occurring in the Thy-1^+ subset.

[2] = system: fibroblasts from patients with GD; assay: T lymphocyte migration (chemotaxis) assay of conditioned medium from treated fibroblasts, GD donors; details: IgG 100 ng/ml, IL-1β 10 ng/ml, 24 hours
Procedure: (§1) The general migration assay is described in detail in Sciaky, D., et al., “Cultured human fibroblasts express constitutive IL-16 mRNA: Cytokine induction of active IL-16 protein synthesis through a caspase-3-dependent mechanism,” J. Immunol. 164(7):3806-14 (2000), hereby incorporated fully by reference. Briefly, fibroblasts from TAO and normal orbital tissue were seeded in 24-well arrays and grown to confluence. Monolayers were shifted containing 1% FBS to which nothing, purified normal or TAO IgG was added for various time intervals. Medium was collected and stored until use at −80° C. Chemotaxis was examined using Boyden chambers to which NWNA-T lymphocytes were added as the cellular targets. 50 μl cell suspension (10^7 cells/ml) were placed in the upper compartments of 48-well micro-chemotaxis chambers separated from 32 μl of serum samples by 8 μm micropore nitrocellulose filters (Neuroprobe). These were incubated at 37° C. in 5% CO2 environment for 3 hr. Filters were fixed, stained with hematoxylin, dehydrated, mounted on glass slides and viewed by light microscopy. Lymphocyte migration was quantified by counting the total number of cells migrating beyond a fixed depth. This depth was set to routinely identify a baseline migration under control conditions of 10-15 cells per high power field. Five such fields were counted in duplicate for each sample and the means±SD were calculated and expressed as percentage values of baseline cell migration in control buffer alone (100%). For each set of experimental conditions, at least three separate determinations were performed. Differences between experimental groups were analyzed by the Student t test using absolute values obtained for lymphocyte migration and statistical difference was accepted at the 95% level of confidence.
(§2) To assess specificity for IL-16, experiments were conducted by incubating samples of culture media for 15 min with neutralizing concentrations of anti-IL-16 MAB (clone 14. 1, 10 μg/ml), which blocks the chemotactic activity of 50 ng/ml of rIL-16. Anti-RANTES MAB (5 μg/ml) having an ND50 of 200 ng/ml rRANTES was used to neutralize RANTES as described in Sciaky D., Brazer, W., Center, D. M., Cruikshank, W. W. and Smith, T. J.: Cultured human fibroblasts express constitutive IL-16 mRNA: Cytokine induction of active IL-16 protein synthesis through a caspase-3-dependent mechanism. J. Immunol. 164(7):3806-14, 2000).
(§3) Referring to FIGS. 3A-3C, serum concentrations of IL-16 are elevated in patients with active TAO. Moreover, both IL-16 and PGHS-2 protein can be detected in TAO orbital tissue. The concentration of IL-16 is determined in sera from either patients with Graves' disease or normal controls. The sera are subjected to an ELISA assay, which utilizes an anti-IL-16 specific antibody. IL-16 is detected by standard immunohistochemical techniques in thin sections harvested from affected orbital connective tissues from a patient with severe Graves' ophthalmopathy. In a separate measurement of IL-16 dependent T-cell migration, a panel of 11 different fibroblast strains from patients with Graves' disease and 5 from individuals without known thyroid disease were challenged with Graves' IgG (100 ng/ml), normal IgG (100 ng/ml) or IL-1β (10 ng/ml) for 24 hours and assessed for T cell migration activity and IL-16 production (Table II). Graves' IgG induced IL-16 dependent cell migration in 10 of the Graves' fibroblast strains which derived from orbit and skin from various anatomic regions. Included were strains from the pretibial skin as well as the abdominal wall and the neck. The latter two sites rarely manifest Graves' disease. A substantial fraction of Graves' IgG provoked T cell migration activity in most of these strains was resistant to neutralization with anti-IL-16. Similarly, chemoattractants produced by RA fibroblasts can be measured by T-cell migration. […]

[3] = system: fibroblasts from individuals without known thyroid disease; assay: T lymphocyte migration (chemotaxis) assay of conditioned medium from treated fibroblasts, normal donors; details: IgG 100 ng/ml, IL-1β 10 ng/ml, 24 hours
Procedure: as §1, §2, §3

Substance: IL-1β: pro-inflammatory cytokine used to activate fibroblasts
- IL-8 induction in Thy-1^− relative to Thy-1^+ subset [1]: 5.5 fold
- T Cell Migration (% control) ([2]; strain 1, Orbit): 194 +/− 11 % control
- T Cell Migration +anti-IL-16 ([2]; strain 1, Orbit): 149 +/− 8 % control
- T Cell Migration +anti-RANTES ([2]; strain 1, Orbit): 167 +/− 10 % control
- T Cell Migration (% control) ([2]; strain 2, Orbit): 195 ± 13 % control
- T Cell Migration +anti-IL-16 ([2]; strain 2, Orbit): 171 ± 7 % control
- T Cell Migration +anti-RANTES ([2]; strain 2, Orbit): 170 ± 8 % control
- T Cell Migration (% control) ([2]; strain 3, Abdominal skin): 195 +/− 13 % control
- T Cell Migration +anti-IL-16 ([2]; strain 3, Abdominal skin): 171 +/− 7 % control
- T Cell Migration +anti-RANTES ([2]; strain 3, Abdominal skin): 171 +/− 8 % control
- T Cell Migration (% control) ([2]; strain 4, Orbit): 236 ± 19 % control
- T Cell Migration +anti-IL-16 ([2]; strain 4, Orbit): 175 ± 12 % control
- T Cell Migration +anti-RANTES ([2]; strain 4, Orbit): 188 ± 9 % control
- T Cell Migration (% control) ([2]; strain 5, Abdominal skin): 144 ± 8 % control
- T Cell Migration +anti-IL-16 ([2]; strain 5, Abdominal skin): 128 ± 8 % control
- T Cell Migration +anti-RANTES ([2]; strain 5, Abdominal skin): 131 ± 5 % control
- T Cell Migration (% control) ([2]; strain 6, Neck skin): 211 ± 13 % control
- T Cell Migration +anti-IL-16 ([2]; strain 6, Neck skin): 148 ± 10 % control
- T Cell Migration +anti-RANTES ([2]; strain 6, Neck skin): 178 ± 12 % control
- T Cell Migration (% control) ([2]; strain 7, Pretibial skin): 236 ± 19 % control
- T Cell Migration +anti-IL-16 ([2]; strain 7, Pretibial skin): 175 ± 12 % control
- T Cell Migration +anti-RANTES ([2]; strain 7, Pretibial skin): 188 ± 9 % control
- T Cell Migration (% control) ([2]; strain 8, Pretibial skin): 204 ± 14 % control
- T Cell Migration +anti-IL-16 ([2]; strain 8, Pretibial skin): 164 ± 10 % control
- T Cell Migration +anti-RANTES ([2]; strain 8, Pretibial skin): 173 ± 8 % control
- T Cell Migration (% control) ([2]; strain 9, Orbit): 243 +/− 13 % control
- T Cell Migration +anti-IL-16 ([2]; strain 9, Orbit): 167 +/− 11 % control
- T Cell Migration +anti-RANTES ([2]; strain 9, Orbit): 189 +/− 10 % control
- T Cell Migration (% control) ([2]; strain 10, Orbit): 248 +/− 19 % control
- T Cell Migration +anti-IL-16 ([2]; strain 10, Orbit): 189 +/− 14 % control
- T Cell Migration +anti-RANTES ([2]; strain 10, Orbit): 206 +/− 12 % control
- T Cell Migration (% control) ([2]; strain 11, Orbit): 210 +/− 13 % control
- T Cell Migration +anti-IL-16 ([2]; strain 11, Orbit): 162 +/− 11 % control
- T Cell Migration +anti-RANTES ([2]; strain 11, Orbit): 183 +/− 6 % control
- T Cell Migration (% control) ([3]; strain 12, Orbit): 168 +/− 11 % control
- T Cell Migration +anti-IL-16 ([3]; strain 12, Orbit): 143 +/− 9 % control
- T Cell Migration +anti-RANTES ([3]; strain 12, Orbit): 156 +/− 9 % control
- T Cell Migration (% control) ([3]; strain 14, Orbit): 189 +/− 10 % control
- T Cell Migration +anti-IL-16 ([3]; strain 14, Orbit): 154 +/− 8 % control
- T Cell Migration +anti-RANTES ([3]; strain 14, Orbit): 159 +/− 9 % control
- T Cell Migration (% control) ([3]; strain 15, Extremity Skin): 197 ± 10 % control
- T Cell Migration +anti-IL-16 ([3]; strain 15, Extremity Skin): 153 ± 9 % control
- T Cell Migration +anti-RANTES ([3]; strain 15, Extremity Skin): 172 ± 9 % control
- T Cell Migration (% control) ([3]; strain 16, Extremity Skin): 201 ± 7 % control
- T Cell Migration +anti-IL-16 ([3]; strain 16, Extremity Skin): 155 ± 8 % control
- T Cell Migration +anti-RANTES ([3]; strain 16, Extremity Skin): 173 ± 7 % control
